Substitutions are numbered along the chain they refer to. Where “and” joins values, the source holds several entries; their conditions need not be identical. Equal entries are not always repeated. Ends that are not written are not given here.
Experiments:
[1] = target: T1, HLA-DP4 (DPA1*01:03/DPB1*04:01) expressed on K562 cells (Homo sapiens, UniProt P04440+P20036); experiment: cell-based; assay type: binding
T1 construct: expressed in transfected cells; host or cells: K562 (human erythroleukemic cells without endogenous MHC class II, Ii or HLA-DM), retrovirally transduced, pMX vector
T1 sequence (P20036 29-260): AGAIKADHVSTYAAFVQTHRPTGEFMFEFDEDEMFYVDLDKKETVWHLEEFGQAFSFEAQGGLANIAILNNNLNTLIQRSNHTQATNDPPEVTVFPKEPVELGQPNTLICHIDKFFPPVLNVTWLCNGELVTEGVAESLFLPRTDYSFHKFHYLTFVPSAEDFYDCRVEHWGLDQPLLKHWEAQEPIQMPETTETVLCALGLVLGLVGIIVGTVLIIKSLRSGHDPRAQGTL
T1 sequence (P04440 30-258): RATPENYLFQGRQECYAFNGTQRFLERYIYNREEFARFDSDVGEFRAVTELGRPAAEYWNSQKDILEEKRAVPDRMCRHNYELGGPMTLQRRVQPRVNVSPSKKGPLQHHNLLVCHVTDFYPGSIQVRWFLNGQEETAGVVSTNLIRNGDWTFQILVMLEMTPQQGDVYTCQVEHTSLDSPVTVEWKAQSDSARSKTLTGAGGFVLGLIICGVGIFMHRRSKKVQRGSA

[2] = target: T2, DP4^84DEAV87 (substitution mutant of DPB1*04:01 with DPA1*01:03) expressed on K562 cells (Homo sapiens, UniProt P04440+P20036, G113D/G114E/M116V/P115A); experiment: cell-based; assay type: binding
T2 construct: expressed in transfected cells; host or cells: K562 (human erythroleukemic cells without endogenous MHC class II, Ii or HLA-DM), retrovirally transduced, pMX vector
T2 sequence (P20036 29-260): T1 sequence (P20036 29-260)
T2 sequence (P04440 30-258 G113D/G114E/P115A/M116V): T1 sequence (P04440 30-258) with G84D, G85E, P86A, M87V

Sequence	IC50 [1]	IC50 [2] [µM]
NLRMKLPKPPKPVSKMRMATPLLMQALPM [N-extended CLIP]	29.8 µM	
LPKPPKPVSKMRMATPLLMQALPMGALPQ [C-extended CLIP]	15.3 µM	
LPKPPKPVSKMRMATPLLMQALPM [CLIP]	12.2 µM and 14.7 µM	6
KKLLTQHFVQENYLEY [MAGE-A3_243–258, reference compound]	28.7 µM	33.7
